Bridges are numbered along the chain shown (N, C = ends). Where no end group is shown, it is not given here.
Columns and labels:
[1] = test system: PLA2R autoantibody from one MN patient serum; assay: Peptide microarray binding detection (PEPperCHIP); details: MN patient serum at 1:100, goat anti-human IgG DyLight 680
Excerpt: To probe the importance of the amino acids within the PLA2R epitope in human autoantibody recognition, we utilized a printed peptide microarray. This peptide laser printing technology allows the synthesis of peptides (between 15 and 20 amino acids in length) directly onto glass slides followed by single substitution scans, which involves the stepwise substitution of all amino acid positions of a given epitope with all 20 main amino acids (Fig. 1A). We first synthesized a stepped series of truncated peptides across the originally discovered 31mer epitope (at both N- and C-terminus end) in order to identify the minimum sequence retaining high-affinity binding. […] We have previously shown that the epitope peptide is a disulphide-bonded structure, and its reactivity to human anti-PLA2R is sensitive to reduction ([8]). […] The substitution scan of these two regions was performed by exchange of the native amino acids with all 20 main amino acids. […] To further investigate this, a second array (platform 3) combined both parts of the N-terminal region and the cyclic C-terminal region. […]
Peptide microarrays were generated and performed by PEPperPRINT (Heidelberg, Germany) ([31], [32]). […] Peptide spot intensity quantification and peptide annotation were executed with PepSlide Analyzer. […]

[2] = test system: PLA2R autoantibody (27 MN anti-PLA2R positive sera); assay: BLI direct interaction assay: immobilized peptides with anti-PLA2R positive sera; type: binding, human; details: BLI (Octet Red); 27 MN sera at 1/200; dissociation rate from Hill-1 plot; n = 3
Protocol: BLI experiments were conducted using an Octet Red (ForteBio). Octet CDL sensors (coated with a thin layer of carboxymethyl dextran) were activated by EDC/NHS, at the same concentration used for SPR, for 300 s with 1000 rpm agitation. […] Following immobilization, sensors were deactivated in 1 M ethanolamine for 300 s to prevent further immobilization of proteins to the samples sensors.
The association phase was measured for 450 s with 1000 rpm agitation. The dissociation phase for each sensor was subsequently measured by incubating the sensors into Hepes-sera buffer for 1200 s at 1000 rpm. Regeneration of the sensor was achieved by six successive washes in 10 mM NaOH for 15 s followed by 15 s in Milli-Q water. The immobilized sensor responses to anti-PLA2R IgG were calibrated against nonspecific binding of each immobilized sensor to Hepes-sera buffer.
The dissociation phase of each response was collected and plotted, and the dissociation rate was calculated (kd) as the 1/k value produced from a Hill-1 plot analysis. The average dissociation rate was calculated for each peptide sensor binding to the 27 MN patients’ sera. Dissociation rates with an R^2 value <0.9 or χ^2 value >3 were excluded from the data due to poor fitting.

[3] = test system: human anti-PLA2R antibody (MN anti-PLA2R IgG) binding to PLA2R-NC3; assay: SPR inhibition assay: peptides block anti-PLA2R IgG binding to immobilized PLA2R-NC3; details: SPR (ProteOn), 1 µM peptide, anti-PLA2R IgG 1/100 in Hepes buffer pH 7.2, maximal response, n = 3
Protocol: Real-time binding analysis was evaluated using an SPR instrument (ProteOn, BIO-RAD). ProteOn GLC sensor lanes were preactivated by injection of 18.75 mg/mL EDC (1-ethyl-3-(3-dimethylaminopropyl) carbodiimide) and 1.4 mg/mL NHS (N-hydroxysuccinimide, Sigma-Aldrich). Once activated, 20 μg/mL PLA2R-NC3 in 10 mM sodium acetate buffer (pH 4.5) (BIO-RAD) was injected onto sensor chip lanes for immobilization. Ethanolamine was injected to deactivate the sensors from further immobilization.
Subsequently, all AIPs were tested in triplicate using the same concentration. […] Hepes buffer was subsequently flown over, and the dissociation phase was measured for 400 s. The sensors were then regenerated with two successive injections (40 s) of 10 mM NaOH (sodium hydroxide). Each measured response of anti-PLA2R IgG with or without peptides to immobilized PLA2R-NC3 protein was calibrated against nonspecific binding of the sensor to Hepes buffer and Hepes buffer containing antibodies with or without peptides to a blank immobilized sensor. The maximal response was measured for all conditions of anti-PLA2R IgG and percentage inhibition of PLA2R autoantibody binding to PLA2R by AIPs calculated.

PLA2R autoantibody = assay: Autoantibody binding to Endo180 protein (western blot and dot blot, Fig. S2); design: species or system human; details: western blot non reduced and reduced; dot blot under native condition
Protocol: To determine the contribution of the conformation of the epitope sequence, the binding of the autoantibody was tested against Endo180 protein, another member of the mannose receptor family with high structural homology of the PLA2R CysR domain (SI Appendix, Fig. S2).
Fig. S2: PLA2R autoantibodies incapable of binding to Endo180 potentially due to lack of surface cavity in the P28mer epitope region.
A) Sequences from the P28mer region in the mannose receptor family proteins were subjected to consensus mapping by weblogo. Residues conserved in all mannose receptor proteins are indicated with *. B) Western blot analysis of PLA2R and Endo180 under non reduced and reduced conditions using anti-His and human PLA2R autoantibody. C) Dot blot analysis of PLA2R and […]
PLA2R autoantibody under native condition. D) Comparison of the PLA2R, DEC -205 (5ao5) and Endo-180 (7jpt) structures and their overlays. The RSMD values generated were 3.184 Å RMSD for analysis between PLA2R and Endo180, 3.558 Å RMSD for DEC-205 and Endo180, where Endo180 was used as reference.
(1 picture or pasted object on this page, not shown here)

With “CIQAGKSVLTLENCK (disulfide 1-14 (inferred)) [platform 2, microarray-printed cyclic region […] of P28mer, cyclized by disulphide]” the “autoantibody binding to printed peptide (fluorescence intensity)” value [1] was “no significant binding”.

With “KGIFVIQSESLKKC [platform 1, microarray-printed linear region […] of P28mer]” the “autoantibody binding to printed peptide (fluorescence intensity)” value [1] was “no significant binding”.

With SVLTLENCK [AIP2] the “binding affinity of immobilized peptide to anti-PLA2R positive sera, relative to P28mer” value [2] was “lower affinity than the P28mer”.

In the case of VIQSESLK [AIP1], the “binding affinity of immobilized peptide to anti-PLA2R positive sera, relative to P28mer” value [2] is reported as “lower affinity than the P28mer” and the “percentage inhibition of PLA2R autoantibody binding to PLA2R” value [3] is reported as ~40%.

B1: Endo180: mannose receptor family protein with high structural homology to the PLA2R CysR domain (protein, UniProt Q9UBG0 31-1479, looked up)
C-type mannose receptor 2: GAPGDAALPEPNVFLIFSHGLQGCLEAQGGQVRVTPACNTSLPAQRWKWVSRNRLFNLGTMQCLGTGWPGTNTTASLGMYECDREALNLRWHCRTLGDQLSLLLGARTSNISKPGTLERGDQTRSGQWRIYGSEEDLCALPYHEVYTIQGNSHGKPCTIPFKYDNQWFHGCTSTGREDGHLWCATTQDYGKDERWGFCPIKSNDCETFWDKDQLTDSCYQFNFQSTLSWREAWASCEQQGADLLSITEIHEQTYINGLLTGYSSTLWIGLNDLDTSGGWQWSDNSPLKYLNWESDQPDNPSEENCGVIRTESSGGWQNRDCSIALPYVCKKKPNATAEPTPPDRWANVKVECEPSWQPFQGHCYRLQAEKRSWQESKKACLRGGGDLVSIHSMAELEFITKQIKQEVEELWIGLNDLKLQMNFEWSDGSLVSFTHWHPFEPNNFRDSLEDCVTIWGPEGRWNDSPCNQSLPSICKKAGQLSQGAAEEDHGCRKGWTWHSPSCYWLGEDQVTYSEARRLCTDHGSQLVTITNRFEQAFVSSLIYNWEGEYFWTALQDLNSTGSFFWLSGDEVMYTHWNRDQPGYSRGGCVALATGSAMGLWEVKNCTSFRARYICRQSLGTPVTPELPGPDPTPSLTGSCPQGWASDTKLRYCYKVFSSERLQDKKSWVQAQGACQELGAQLLSLASYEEEHFVANMLNKIFGESEPEIHEQHWFWIGLNRRDPRGGQSWRWSDGVGFSYHNFDRSRHDDDDIRGCAVLDLASLQWVAMQCDTQLDWICKIPRGTDVREPDDSPQGRREWLRFQEAEYKFFEHHSTWAQAQRICTWFQAELTSVHSQAELDFLSHNLQKFSRAQEQHWWIGLHTSESDGRFRWTDGSIINFISWAPGKPRPVGKDKKCVYMTASREDWGDQRCLTALPYICKRSNVTKETQPPDLPTTALGGCPSDWIQFLNKCFQVQGQEPQSRVKWSEAQFSCEQQEAQLVTITNPLEQAFITASLPNVTFDLWIGLHASQRDFQWVEQEPLMYANWAPGEPSGPSPAPSGNKPTSCAVVLHSPSAHFTGRWDDRSCTEETHGFICQKGTDPSLSPSPAALPPAPGTELSYLNGTFRLLQKPLRWHDALLLCESRNASLAYVPDPYTQAFLTQAARGLRTPLWIGLAGEEGSRRYSWVSEEPLNYVGWQDGEPQQPGGCTYVDVDGAWRTTSCDTKLQGAVCGVSSGPPPPRRISYHGSCPQGLADSAWIPFREHCYSFHMELLLGHKEARQRCQRAGGAVLSILDEMENVFVWEHLQSYEGQSRGAWLGMNFNPKGGTLVWQDNTAVNYSNWGPPGLGPSMLSHNSCYWIQSNSGLWRPGACTNITMGVVCKLPRAEQSSFSPSALPENPAALVVVLMAVLLLLALLTAALILYRRRQSIERGAFEGARYSRSSSSPTEATEKNILVSDMEMNEQQE
With B1 the “interaction of the autoantibody with the protein” value (PLA2R autoantibody) was “No interaction was detected”.
